# pIC50, pKi: −log10 of the molar value. Bridge positions count the residues as written; N and C are the ends. Square brackets hold non-standard residues; d marks the D form. Peptide text beside a SMILES is read from it. Phe(4-Cl) = N[C@@H](Cc1ccc(Cl)cc1)C(=O)O; Phe(4-I) = N[C@@H](Cc1ccc(I)cc1)C(=O)O; Phe(4-Me) = Cc1ccc(C[C@H](N)C(=O)O)cc1
# Experiments:
# [1] = species: Homo sapiens; experiment: Selectivity index, ratio of Ki for human cathepsin G using Suc-AAPF-MCA as substrate to Ki for recombinant human chymase expressed in Pichia pastoris X-33 cells using NleTDY-pNA as substrate
# [2] = target: Chymotrypsin (Homo sapiens, UniProt Q99895+P17538+P40313+Q6GPI1); experiment: Inhibition of human chymotrypsin using Suc-AAPF-MCA as substrate at pH 8 and 298 K measured every 60 secs for 600 secs; type: protein assay
# [3] = target: T1, Cathepsin G (Homo sapiens, UniProt P08311); experiment: Inhibition of human cathepsin G using Suc-AAPF-MCA as substrate at pH 7.2 and 298 K measured every 60 secs for 600 secs
# T1 sequence (P08311 whole entry): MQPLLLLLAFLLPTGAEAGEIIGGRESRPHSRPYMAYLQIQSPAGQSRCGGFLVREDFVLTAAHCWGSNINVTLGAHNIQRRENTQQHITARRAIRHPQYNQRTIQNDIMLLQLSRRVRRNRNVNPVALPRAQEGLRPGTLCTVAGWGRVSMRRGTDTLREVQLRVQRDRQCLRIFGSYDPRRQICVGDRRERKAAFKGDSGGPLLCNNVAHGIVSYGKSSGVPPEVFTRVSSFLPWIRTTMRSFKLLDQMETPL
# [4] = species: Homo sapiens; experiment: Selectivity index, ratio of Ki for human chymotrypsin using Suc-AAPF-MCA as substrate to Ki for recombinant human chymase expressed in Pichia pastoris X-33 cells using NleTDY-pNA as substrate
# [5] = target: T2, Chymase (Homo sapiens, UniProt P23946); experiment: Inhibition of recombinant human chymase expressed in Pichia pastoris X-33 cells using NleTDY-pNA as substrate assessed as cleavage of pNA at pH 7.2 and 298 K by spectrophotometry analysis
# T2 sequence (P23946 whole entry): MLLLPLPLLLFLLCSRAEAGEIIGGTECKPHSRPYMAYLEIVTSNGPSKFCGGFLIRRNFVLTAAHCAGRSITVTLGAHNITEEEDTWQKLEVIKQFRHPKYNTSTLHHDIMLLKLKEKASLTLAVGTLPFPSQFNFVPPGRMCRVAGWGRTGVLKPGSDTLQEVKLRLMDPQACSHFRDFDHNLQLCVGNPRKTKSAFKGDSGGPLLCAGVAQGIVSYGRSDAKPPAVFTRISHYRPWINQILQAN
# [6] = target: T3, Coagulation factor XII (Homo sapiens, UniProt P00748); experiment: Inhibition of human coagulation factor 12a using Ac-QRFR-pNA as substrate at pH 8 and 298 K measured every 60 secs for 600 secs
# T3 sequence (P00748 whole entry): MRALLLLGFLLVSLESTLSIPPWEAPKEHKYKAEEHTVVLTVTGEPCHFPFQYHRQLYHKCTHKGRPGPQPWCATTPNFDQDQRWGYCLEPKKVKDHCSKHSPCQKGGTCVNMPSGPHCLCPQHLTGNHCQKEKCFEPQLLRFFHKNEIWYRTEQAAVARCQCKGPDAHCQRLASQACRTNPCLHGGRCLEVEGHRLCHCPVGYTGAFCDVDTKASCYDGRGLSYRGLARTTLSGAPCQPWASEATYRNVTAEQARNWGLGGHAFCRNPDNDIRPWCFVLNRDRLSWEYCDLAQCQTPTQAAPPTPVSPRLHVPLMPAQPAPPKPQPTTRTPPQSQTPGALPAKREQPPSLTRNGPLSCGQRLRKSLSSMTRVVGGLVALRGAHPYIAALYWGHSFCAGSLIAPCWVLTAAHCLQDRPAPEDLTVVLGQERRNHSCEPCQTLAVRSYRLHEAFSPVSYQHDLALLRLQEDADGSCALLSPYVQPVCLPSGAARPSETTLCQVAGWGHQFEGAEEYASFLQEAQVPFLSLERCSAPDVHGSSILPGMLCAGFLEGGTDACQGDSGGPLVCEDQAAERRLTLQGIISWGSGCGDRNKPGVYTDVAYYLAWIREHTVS
# [7] = target: Prothrombin (Homo sapiens, UniProt P00734); experiment: Inhibition of human thrombin using Boc-VPR-MCA as substrate at pH 8 and 298 K measured every 60 secs for 600 secs
# [8] = target: T4, Neutrophil elastase (Homo sapiens, UniProt P08246); experiment: Inhibition of human neutrophil elastase using MeOSuc-AAPV-MCA as substrate at pH 7.2 and 298 K measured every 60 secs for 600 secs
# T4 sequence (P08246 whole entry): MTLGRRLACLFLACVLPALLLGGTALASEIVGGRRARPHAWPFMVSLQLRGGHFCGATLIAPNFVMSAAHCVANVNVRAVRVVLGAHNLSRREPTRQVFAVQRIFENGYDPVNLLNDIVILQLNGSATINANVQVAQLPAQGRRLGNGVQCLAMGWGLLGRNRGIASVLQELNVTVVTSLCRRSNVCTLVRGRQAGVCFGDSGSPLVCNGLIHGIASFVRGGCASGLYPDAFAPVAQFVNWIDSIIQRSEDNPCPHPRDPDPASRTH
# [9] = Inhibition of human cationic trypsin using Boc-VPR-MCA as substrate at pH 8 and 298 K measured every 60 secs for 600 secs
# [10] = target: Kallikrein-7 (Homo sapiens, UniProt P49862); experiment: Inhibition of recombinant human KLK7 expressed in Pichia pastoris X-33 using KHLY-pNA as substrate at pH 8 and 298 K measured every 60 secs for 600 secs
# [11] = target: T2, Chymase; experiment: Inhibition of recombinant human chymase expressed in Pichia pastoris X-33 cells assessed as decrease in angiotensin 1 cleavage to angiotensin 2 incubated for 120 mins at 298 K by UPLC-MS analysis
# Kallikrein-7, sequence (P49862 whole entry): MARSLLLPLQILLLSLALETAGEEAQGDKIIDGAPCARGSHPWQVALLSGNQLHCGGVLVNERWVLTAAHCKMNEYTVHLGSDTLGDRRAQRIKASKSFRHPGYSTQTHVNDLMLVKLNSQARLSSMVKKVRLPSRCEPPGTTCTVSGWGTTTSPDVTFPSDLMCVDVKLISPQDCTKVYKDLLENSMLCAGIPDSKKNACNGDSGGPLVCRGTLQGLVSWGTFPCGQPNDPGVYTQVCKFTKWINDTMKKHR
SMILES,Ratio Ki [1],Ki [2],pKi [3],Ratio Ki [4],pKi [5],pIC50 [6],pIC50 [7],pIC50 [8],pIC50 [9],pIC50 [10],IC50 [2],pIC50 [11]
N=C(N)NCCC[C@@H]1NC(=O)CNC(=O)[C@H](CC(=O)O)NC(=O)[C@@H]2CCCN2C(=O)[C@H](Cc2ccccc2)NC(=O)[C@@H]2CSSC[C@H](NC1=O)C(=O)N[C@@H](CCC(N)=O)C(=O)N[C@@H](Cc1ccc(O)cc1)C(=O)N[C@@H](CO)C(=O)N[C@@H](CCC(=O)O)C(=O)N1CCC[C@H]1C(=O)N1CCC[C@H]1C(=O)N[C@@H](CCC(=O)O)C(=O)N2 (cyclo(CFPDGRCQYSEPPE); disulfide 1-7),8.2,2900 nM,7.27,440,8.18,–,–,–,–,–,–,–
Cc1ccc(C[C@@H]2NC(=O)[C@H](CCC(N)=O)NC(=O)[C@@H]3CSSC[C@H](NC(=O)[C@H](CCC(=O)O)NC(=O)[C@@H]4CCCN4C(=O)[C@@H]4CCCN4C(=O)[C@H](CCC(=O)O)NC(=O)[C@H](CO)NC2=O)C(=O)N[C@@H](Cc2ccccc2)C(=O)N2CCC[C@H]2C(=O)N[C@@H](CC(=O)O)C(=O)NCC(=O)N[C@@H](CCCNC(=N)N)C(=O)N3)cc1 (cyclo(CFPDGRCQ[Phe(4-Me)]SEPPE); disulfide 1-7),72 to 80,1500 nM,6.80,180,8.66,< 5.00,< 5.00,< 5.00,< 5.00,< 5.00,–,–
N=C(N)NCCC[C@@H]1NC(=O)CNC(=O)[C@H](CC(=O)O)NC(=O)[C@@H]2CCCN2C(=O)[C@H](Cc2ccccc2)NC(=O)[C@@H]2CSSC[C@H](NC1=O)C(=O)N[C@@H](CCC(N)=O)C(=O)N[C@@H](Cc1ccc(I)cc1)C(=O)N[C@@H](CO)C(=O)N[C@@H](CCC(=O)O)C(=O)N1CCC[C@H]1C(=O)N1CCC[C@H]1C(=O)N[C@@H](CCC(=O)O)C(=O)N2 (cyclo(CFPDGRCQ[Phe(4-I)]SEPPE); disulfide 1-7),–,–,5.92,–,7.72,< 5.00,< 5.00,< 5.00,< 5.00,< 5.00,> 10 µM,6.54
N=C(N)NCCC[C@@H]1NC(=O)CNC(=O)[C@H](CC(=O)O)NC(=O)[C@@H]2CCCN2C(=O)[C@H](Cc2ccccc2)NC(=O)[C@@H]2CSSC[C@H](NC1=O)C(=O)N[C@@H](CCC(N)=O)C(=O)N[C@@H](Cc1ccc(Cl)cc1)C(=O)N[C@@H](CO)C(=O)N[C@@H](CCC(=O)O)C(=O)N1CCC[C@H]1C(=O)N1CCC[C@H]1C(=O)N[C@@H](CCC(=O)O)C(=O)N2 (cyclo(CFPDGRCQ[Phe(4-Cl)]SEPPE); disulfide 1-7),83,330 nM,6.82,–,8.74,< 5.00,< 5.00,< 5.00,< 5.00,< 5.00,–,7.48
